The values that follow come from patent publication US20170304251A1, “AVOCADO-DERIVED LIPIDS FOR USE IN TREATING LEUKEMIA” (priority 2014, published 2017).

Holding throughout (assay type): cell-based
The subject of data set [1] is TEX cells. The data set can be described thus: Propidium iodide staining and flow cytometry (Example 6). Conditions: increasing concentrations up to 10 micromolar. On the procedure:
Avocadyne, avocadene and avocatin B were tested for their toxicity to leukemic cells using TEX cells. The TEX cells were treated with increasing concentrations of each lipid (up to 10 micromolar) and subsequently stained with propidium iodide (PI), which stains only dead cells. The percent viability was measured using flow cytometry gating on PI positive and PI negative cells.

The test system of another data set is TEX leukemia cells. Kind of data set: MTS cell growth and viability assay, 72 hours. The method, then:
Leukemia (OCI-AML2) cells were cultured in Iscove's Modified Dulbecco's Medium (IMDM) (Life Technologies; Grand Island, N.Y.) supplemented with 10% Fetal Bovine Serum (FBS; Seradigm; Providence, Utah) and antibiotics ([…]; Sigma Chemical; St. Louis, Mo.). TEX leukemia cells were cultured in 15% FBS, antibiotics and 2 mM L-glutamine (Sigma Chemical), 20 ng/ml stem cell factor and 2 ng/ml IL-3 (Peprotech; Hamburg Germany). Primary human samples (fresh and frozen) were obtained from the peripheral blood of AML patients who had at least 80% malignant cells among the mononuclear cells and cultured at 37° C. in IMDM, 20% FBS and antibiotics (see table 1a and 1 b for clinical parameters). […] Cell growth and viability was measured using the 3-(4,5-dimethylthiazol-2-yl)-5-(3-carboxymethoxyphenyl)-2-(4-sulfophenyl)-2H-tetrazolium inner salt (MTS) reduction assay (Promega; Madison, Wis.) according to the manufacturer's protocol and as previously described^7. Cells were seeded in 96-well plates, treated with drug for 72 hours and optical density (OD) was measured at 490 nm. Cell viability was also assessed by the trypan blue exclusion assay and by Annexin V and PI staining (Biovision; Mountainview, Calif.), as previously described^7. […] After 72 hours, cell proliferation and viability were measured by the MTS assay.

The subject of data set [2] is TEX cells. Kind of data set: Reactive oxygen species detection (DCFH-DA, DHE, flow cytometry). An excerpt:
Reactive oxygen species (ROS) were detected using 2′,7′dichlorohydrofluorescein-diacetate (DCFH-DA; Sigma Chemical) and dihyodroethidium (DHE; Sigma Chemical). DCFH-DA is hydrolyzed by intracellular esterase to produce a non-fluorescent DCFH product. It can then be oxidized by ROS to produce a highly fluorescent DCF product^14. DHE is a superoxide indicator which upon contact with superoxide anions produces the fluorescent product 2-hydroxyethidium^15. Following drug treatment, TEX cells (5×10^5) were collected and washed in PBS (Sigma-Aldrich). Cells were stained with 5 μM (final concentration) DCFH-DA or 10 μM DHE and allowed to incubate for 30 minutes in a humidified atmosphere containing 5% CO2 at 37° C. Samples were then washed in PBS and ROS was measured by flow cytometry using the Guava EasyCyte 8HT (Millipore). Data were analyzed with GuavaSoft 2.5 software (Millipore).

Data set [3] has as its system TEX cells. Kind of data set: Hypoxia experiments, sulforhodamine B assay. The method, then: (A) Jurkat T cells were cultured in 50 ng/ml of ethidium bromide, […] sodium pyruvate and 50 μg/ml uridine for 60 days to create Jurkat-EtBr cells which lack functional mitochondrial. To confirm that Jurkat-EtBr cells lack mitochondria, the mitochondria specific markers adenine nucleotide translocator (ANT) and complex I (ND1) were measured by Western blotting. (B) Avocatin B's activity was tested in cells with (JURK) and with reduced (JURK-EtBr) mitochondria. Viability was measured by the ANN/PI assay and flow cytometry and data are presented as mean percentage of live cells (i.e., ANN/PI^−)±SD from representative experiments. […] Cell viability was measured by the sulforhodamine B assay, as described in the methods, following a 72 hour incubation period. Data are presented as percent viable. (D) Uncoupling protein 2 (UCP2) was measured in whole cell lysates of avocatin B (10 μM) or DMSO-control treated TEX cells by Western blotting. Arbitrary units (AU) are presented as fold change (compared to the 6 hour time point) and were calculated by dividing each treatment lane by the densitometry of its loading control. Densitometry was calculated as outlined in the methods.
Cell growth and viability were measured by the sulforhodamine B assay (Sigma Chemical) as previously described^8 following 72 hours of incubation.

Data set [4] relates to fatty acid oxidation in TEX cells. Kind of data set: Fatty acid oxidation, oxygen consumption rate (Seahorse XF24). Particulars: avocatin B 10 μM, etomoxir 100 μM, palmitate 175 μM. On the procedure:
Measurement of oxygen consumption rates were performed using a Seahorse XF24 extracellular flux analyzer (Seahorse Bioscience; North Billerica, Mass.). TEX cells were cultured in α-Minimum Essential Medium (Life Technologies) containing 1% FBS and plated at 1×10^5 cells/well in poly-L-Lysine (Sigma Chemical) coated XF24 plates. Cells were incubated with etomoxir (100 μM; Sigma Chemical) or vehicle control for 30 minutes at 37° C. in a humidified atmosphere containing 5% CO2. Next, palmitate (175 μM; Seahorse Bioscience) or avocatin B (10 μM) was added and immediately transferred to the XF24 analyzer. Oxidation of exogenous fatty acids was determined by measuring mitochondrial respiration through sequential injection of 5 μM (final concentration) oligomycin, an ATP synthase inhibitor, (Millipore, Billerica, Mass.), 5 μM CCCP, a hydrogen ion ionophore, (Sigma Chemical), and 5 μM rotenone (Millipore)/5 μM antimycin A, which inhibit complex III activity, (Sigma Chemical). Fatty acid oxidation was determined by the change in oxygen consumption following oligomycin and CCCP treatment and prior to antimycin and rotenone treatment, according to the manufacturer's protocol and as described in Abe et al. (2013)^13. Data were analyzed with XF software (Seahorse Bioscience).

Data set [5] deals with TEX cells. The data set can be described thus: ANN/PI viability of TEX cells with antioxidants or etomoxir. Conditions: 100 μM, 72 hours. The method, then: FIG. 6: Avocatin B inhibits fatty acid oxidation resulting in reduced NADPH and elevated ROS. (A) Illustration of fatty acid oxidation in mitochondria. Long chain fatty acids (LCFA) enter the mitochondria via CPT1 for fatty acid oxidation to yield acetyl-CoA. Acetyl-CoA enters the TCA cycle to generate NADPH, an enzymatic co-factor and antioxidant. (ME: malic enzyme; IDH: isocitrate dehydrogenase; α-KG: α-ketoglutarate). (B) Oxidation of exogenous fatty acids was assessed by measuring the oxygen consumption rate (OCR) in TEX cells treated with palmitate (175 μM), avocatin B (10 μM), avocatin B and palmitate or palmitate and etomoxir (100 μM). […] Effects on fatty acid oxidation were measured with the Seahorse Bioanalyzer, as detailed in the methods section, and (C) quantified by peak area after oligomycin and CCCP treatment, as described by the manufacturer's protocol and detailed in the methods. […] Viability was measured by the ANN/PI assay and data are presented as mean percentage of viable cells (i.e., ANN^−/PI^−)±SD from representative experiments. […] Data, percentage of NADH compared with vehicle control-treated cells±SD; (H) GSH was measured in TEX cells in the presence or absence of NAC using a commercially available fluorimetric assay following treatment with avocatin B ([…]), according to the manufacturers protocol. […]

The subject of data set [6] is TEX cells. Kind of data set: NADPH, NADH and GSH fluorimetric detection. Particulars: avocatin B 10 μM, etomoxir 100 μM; also in the presence of palmitate 175 μM. On the procedure: Nicotinamide adenine dinucleotide phosphate (NADPH), nicotinamide adenine dinucleotide (NAD) and glutathione (GSH) were measured by commercially available fluorimetric kits (e.g. Amplite™ Fluorimetric kit (AAT Bioquest; Sunnyvale, Calif.) according to the manufacturers' protocol and as previously described^16, following incubation of increasing duration with avocatin B (10 μM). For NAPDH studies, cells were also incubated with palmitate (175 μM) in the presence or absence of etomoxir. For NADH and GSH studies, cells were incubated in the presence of palmitate and N-acetylcysteine (NAC; 1 mmol/L), respectively. Data are presented as a percent NAD, NADPH or GSH compared to control treated cells±SD.

Where [7] appears, read: 72 hours, avocatin B 2 μM, antimycin A 1 μM, rotenone 3 μM, daunorubicin 5 nM, cytarabine 4 nM.

Read-outs that look alike come from different tables or passages of the source.

Regarding `C=CCCCCCCCCCCCC(O)CC(O)CO` (stereo not shown) [avocadene], the “amount of cell death (PI positive) in TEX cells, rank among the lipids” value in the data set on TEX cells [1] is on record as “least amount of cell death”.

For the molecule `C#CCCCCCCCCCCCC(O)CC(O)COC(C)=O` (stereo not shown) [avocadyne acetate], in the data set with TEX leukemia cells, the “cytotoxicity toward TEX cells” value was “induce cytotoxicity”. The “ROS activity of avocatin analogues” value with TEX cells [2] (Example 5, FIG. 12) was “induce ROS activity”; in the data set with TEX cells [2] (Example 5, FIG. 12, listed as Avocadyne Acetate), “induce ROS production”.

Turning to `C#CCCCCCCCCCCCC(O)CC(O)CO` (stereo not shown) [avocadyne], the “amount of cell death (PI positive) in TEX cells, rank among the lipids” value in the data set with TEX cells [1] was “greatest amount of cell death”. Moreover, the “cytotoxicity toward TEX cells” value in the data set on TEX leukemia cells is recorded as “induce cytotoxicity”. For the same molecule, the “ROS activity of avocatin analogues” value in the data set on TEX cells [2] (Example 5, FIG. 12) is “induce ROS activity”; in the data set on TEX cells [2] (Example 5, FIG. 12, listed as Avoadyne), “induce ROS production”.

Regarding `COc1cccc2c1C(=O)c1c(O)c3c(c(O)c1C2=O)C[C@@](O)(C(C)=O)C[C@@H]3O[C@H]1C[C@H](N)[C@H](O)[C@H](C)O1` [daunorubicin], the “activity in hypoxic (1% oxygen) versus normoxic (21% oxygen) conditions” value (“activity in hypoxic … (21% oxygen) conditions” for short) with TEX cells [3] (setting [7]) is “unaffected”.

`CCOC(=O)[C@@]1(CCCCCCOc2ccc(Cl)cc2)CO1` [etomoxir]: the “oxidation of exogenous palmitate (oxygen consumption rate)” value in data set [4] was “blocked”. In addition, the “effect of etomoxir on TEX viability” value is given as “does not impart toxicity” in the data set on TEX cells [5] and “did not reduce viability” in the data set on TEX cells [5] (listed as Etomoxir). The “reduction in NADPH” value in the data set on TEX cells [6] is roughly 50%.

`C=C(C)[C@H]1Cc2c(ccc3c2O[C@@H]2COc4cc(OC)c(OC)cc4[C@@H]2C3=O)O1` [rotenone]: the “activity in hypoxic … (21% oxygen) conditions” value in the data set with TEX cells [3] (setting [7]) is “reduced”.

In the case of antimycin, the “activity in hypoxic … (21% oxygen) conditions” value in the data set with TEX cells [3] (setting [7]) was “reduced”.

For cytarabine, the “activity in hypoxic … (21% oxygen) conditions” value with TEX cells [3] is listed as “unaffected”.
